Reference: patent US6303612A, “Derivatives of hydroxyphenylsulfanylbenzoic and hydroxphenylsulfanylarylacetic acids” (Leciva, A.S., priority 1998, dated 2001)
In brackets after ≈: the same amount, converted by molar mass. Where a name gives a salt, the structure may show the parent alone. Read-outs that look alike come from different tables or passages of the source.

Tests used:
LTB4 receptor = LTB4 receptor (Cavia porcellus, UniProt H0VYV8); test: LTB4 receptor binding study; details: 3H-LTB4, guinea-pig spleen membranes; for IC50: read-out: Inh. of LTB4 rec. binding, IC50; for inhibition at 20 µM: read-out: Inh. of LTB4 rec. binding, %
Chain of LTB4 receptor (H0VYV8 1-348): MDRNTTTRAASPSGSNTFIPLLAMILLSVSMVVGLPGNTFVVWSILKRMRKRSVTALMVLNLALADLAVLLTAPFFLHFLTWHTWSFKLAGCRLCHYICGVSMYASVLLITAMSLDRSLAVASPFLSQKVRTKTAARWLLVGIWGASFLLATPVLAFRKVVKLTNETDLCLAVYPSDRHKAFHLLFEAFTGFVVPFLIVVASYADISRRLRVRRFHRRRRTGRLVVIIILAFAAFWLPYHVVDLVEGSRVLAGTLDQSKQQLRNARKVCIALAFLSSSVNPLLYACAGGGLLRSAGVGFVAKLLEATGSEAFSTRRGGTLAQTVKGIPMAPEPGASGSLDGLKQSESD
Experimental: LTB4 Receptor Binding Study
A slightly modified method of Cheng and coworkers (Cheng J. B. et al.: J. Pharm. Expl. Ther. 236, 126 (1986)) was used. The membrane fraction was prepared from male guinea-pig spleen; 2 mg of membranes were incubated with 0.3 nM ^3 H-LTB4 at 25° C. for 30 min in 100 μl of the incubated mixture. The nonspecific binding was determined in the presence of 0.1 μM LTB4. The membranes were filtered though Whatman GF/C paper and washed triply with buffer. The radioactivity was measured by liquid scintillation spectrometry, and the specific binding of ^3 H-LTB4 to the receptor was determined.

[1] = tested on: bronchospasm induced by LTD4; test: Inhibition of bronchospasm induced by LTD4; assay type: in vivo; details: 4 min
Experimental: Inhibition of Allergic Bronchospasm Induced by […] (Compound 48/80 or Ovalbumin, Respectively)
The modified method of Kreutner W. et al (Krelutner W. et al.: Agents Actions 28, 253 (1989)) was used. Bronchoconstrictioin was induced by intravenous injection of 1 μg/kg LTD4 (3 mg/kg of compound […] or 0.35 mg/kg of ovalbumin, respectively). In the case of oval-bumin, the animals were senzitized by intraperitoneal injection of ovalbumin (100 mg/kg) 14 days before induction. The compounds tested were applied 5 min before the administration of the inductor; the vehiculum used for the application of compound tested was administered to the control group of animals. The tracheal pressure was determined in the intervals of 2, 4 and 10 minutes after induction. The effect was expressed in percentage inhibition of bronchospasm relative to the untreated control.

[2] = tested on: LTB4 production in rat polymorphonuclear cells; test: Ex vivo inhibition of LTB4 production (LTB4 biosynthesis); assay type: cell-based; details: for IC50: Rattus norvegicus, read-out: Inh. of LTB4 biosynth., IC50; for Inh. of LTB4 biosynth., %: at 30 μg (%/μg)
Experimental: Ex vivo Inhibition of LTB4 Production The production of LTB4 was determined in rat polymorphonuclear cells from pleural exudate elicited by heat-activated rat serum (Palmer R. M. J., Salmon J. A.: Immunology 50, 65 (1983)). The cells were stimulated with the Ca ionophore A 23187 (Sigma) and incubated with various concentrations of the drugs tested. The sample containing only buffer was used for the determination of unaffected biosynthesis; the complete inhibition was measured in a sample with 100 μg of NDGA in 1 ml. LTB4 was determined in supernatant using a commercial RIA kit (Amersham).

male mice = test: Inhibition of arachidonic acid-induced ear inflammation in mice; assay type: in vivo; details: for inhibition in vivo at 200 mg/kg: Mus musculus, po, 1 h
Experimental: Inhibition of Arachidonic Acid-induced Ear Inflammation in Mice (Opas E. E. et al.: J. Invest. Dermatol. 84, 253 (1985) Ear inflammation was induced in male mice by 20 μl of arachidonic acid dissolved in acetone (concentration 100 mg/ml). The mice were sacrificed 1 h after application of arachidonic acid and the ears were cut off by standard means. The other, vehicle-treated ear of the same animal served as a control. The degree of ear hyperemia and the weight of ear lobes were evaluated. Test compounds were administered orally 1 h before the induction of inflammation.

LTD4 receptor = biological target: T1, LTD4 receptor (Cavia porcellus, UniProt Q2NNR5); test: LTD4 receptor binding study; details: 3H-LTD4, guinea-pig lung membranes; for IC50: read-out: Inh. of LTD4 rec. binding, IC50; for inhibition at 100 µM / inhibition at 20 µM: read-out: Inh. of LTD4 rec. binding, %
T1 construct: The membrane fraction was prepared from male guinea-pig lungs; from tissue; host or cells: male guinea-pig lung membranes
T1 sequence (Q2NNR5 1-340): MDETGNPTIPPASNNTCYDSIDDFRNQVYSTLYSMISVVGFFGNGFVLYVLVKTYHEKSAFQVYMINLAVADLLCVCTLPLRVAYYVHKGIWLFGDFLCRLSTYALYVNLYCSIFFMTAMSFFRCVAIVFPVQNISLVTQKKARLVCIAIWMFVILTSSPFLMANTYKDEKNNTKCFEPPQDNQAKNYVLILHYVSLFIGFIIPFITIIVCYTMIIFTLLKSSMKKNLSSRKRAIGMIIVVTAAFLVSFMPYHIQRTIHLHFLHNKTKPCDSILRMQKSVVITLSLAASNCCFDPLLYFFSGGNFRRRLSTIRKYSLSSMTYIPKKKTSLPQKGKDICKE
Experimental: LTD4 Receptor Binding Study
This study was performed according to the method of Burns and coworkers (Burns R. F. et al.: Life Sci. 33, 645 (1983)). The membrane fraction was prepared from male guinea-pig lungs, and 4 mg of this fraction were incubated with 0.4 nM ^3 H-LTD4 for 60 min at 25° C. in 100 μl of the incubated mixture. The nonspecific binding was determined in the presence of 0.1 μM LTD4. The filtration of the membranes, washing, and radioactivity measurement were as above.

rats = test: Inhibition of carrageenan-induced pleuritis in rats; assay type: in vivo; details: dose 100 mg/kg, oral, values with mark n: p > 0.05; for inhibition in vivo at 100 mg/kg: Rattus norvegicus, po, 4 h
Experimental: Inhibition of Carrageenan-induced Pleuritis in Rats
(Hidaka T. J.: Pharm. Pharmacol. 38, 242 (1986) 1 ml of 0.5% carrageenan solution in saline was administered intrapleurally to experimental animals under mild ether anesthesia. Test drugs were administered in single oral dose 1 h before carrageenan injection, 4 h following the carrageenan application the rats were killed and exudate was withdrawn from opened pleural cavity. The volume of exudate, its cellularity and total cell number were determined.

[3] = tested on: peroxidation of lipids from the hepatic cells membranes; test: Antioxidant effect in vitro; assay type: biochemical; details: at 100 μg
Description: Antioxidant Effect in vitro
The end-product, malonic dialdehyde, was transformed to coloured complex with thiobarbituric acid and determined spectrophotometrically. The antioxidant effect was expressed in % of peroxidation inhibition in the presence of the compound tested in comparison to a control sample.

Wistar-Han rats = test: Inhibition of carrageenan edema; assay type: in vivo; details: dose 100 mg/kg; for inhibition in vivo at 100 mg/kg: Rattus norvegicus, read-out: CE: inhibition of carrageenan-induced edema, % of inh.
[4] = values with mark n: p > 0.05, read-out: Ear edema, D: edema of ear lobe, % of inh.
[5] = values with mark n: p > 0.05, read-out: Ear edema, E: hyperemia of ear lobe, % of inh.
[6] = read-out: Experimental pleuritis, A: volume of exudate in pleural cavity, % of inh.
[7] = read-out: Experimental pleuritis, B: number of cells, % of inh.
[8] = read-out: Experimental pleuritis, C: cellularity in a volume unit, % of inh.
[9] = dose 200 mg/kg, oral, values with mark n: p > 0.05, 200 mg/kg

Row | Compound | IC50 (LTB4 receptor) [µM] | inhibition at 20 µM (LTB4 receptor; at 20 μM) [%] | IC50 [2] [µg/mL] | IC50 (LTD4 receptor) [µM] | inhibition at 100 µM (LTD4 receptor) [%] | inhibition at 20 µM (LTD4 receptor) [%] | Inh. of LTB4 biosynth., % [2] [%] | inhibition in vivo at 200 mg/kg (male mice; [4]) [%] | inhibition in vivo at 200 mg/kg (male mice; [5]) [%] | inhibition in vivo at 100 mg/kg (rats; [6]) [%] | inhibition in vivo at 100 mg/kg (rats; [7]) [%] | inhibition in vivo at 100 mg/kg (rats; [8]) [%] | Antiox. effect, % of peroxidation inhibition [3] [%] | inhibition in vivo at 100 mg/kg (Wistar-Han rats) [%] | also measured
1 | CCCc1c(OCCCOc2cccc(Sc3ccc(C(=O)O)cc3)c2)ccc(C(C)=O)c1O [Compound 5, 4-(3-(3-(4-Acetyl-3-hydroxy-2-propylphenoxy)propoxy)phenylsulfanyl)benzoic Acid] | 9.6 | 65 | 0.05 (≈ 0.104 µM) | 15.1 | 97 |  | 100 | 1 | 0 | 10 | 46 | 61 | 75 | 14 | inhibition in vivo at 100 mg/kg [1]: 16%
2 | CCCc1c(OCCCOc2ccc(Sc3ccccc3CC(=O)O)cc2)ccc(C(C)=O)c1O [Compound 25, 2-(4-(3-(4-Acetyl-3-hydroxy-2-propylphenoxy)propoxy)phenylsulfanyl)phenylacetic Acid] |  | 19 |  | 37.5 | 71 |  | 100 | 20 | 16 | 4 | 38 | 44 | 23 | 7 | 
3 | CCCc1c(OCCCCOc2ccc(Sc3ccccc3CC(=O)O)cc2)ccc(C(C)=O)c1O [Compound 26, 2-(4-(4-(4-Acetyl-3-hydroxy-2-propylphenoxy)butoxy)phenylsulfanyl)phenylacetic Acid] | 18 | 29 |  | 34.7 | 63 |  | 97 | 17 | 0 | 20 | 8 | 23 | 0 | 34 | 
4 | O=C(O)Cc1ccccc1Sc1ccc(OCCCN2CCN(Cc3ccc(Cl)cc3)CC2)cc1 [Compound 27] |  | 12 | 9.2 (≈ 18 µM) |  | 22 |  | 89 | 7 | 22 | 8 | 61 | 47 | 20 | 13 | 
5 | O=C(O)Cc1ccccc1Sc1cccc(OCCCN2CCN(Cc3ccc(Cl)cc3)CC2)c1 [Compound 28, Dihydrogenmaleate of 2-(3-(3-(1-(4-Chlorobenzyl)piperazin-4-yl)-propoxy)phenylsulfanyl)phenylacetic Acid] | 7.9 | 69 | 0.6 (≈ 1.17 µM) |  |  | 10 | 100 | 16 | 19 | 10 | 21 | 14 | 3 | 18 | 

The next lines start with results.

Row | IC50 (LTB4 receptor) [µM] | inhibition at 20 µM (LTB4 receptor; at 20 μM) [%] | IC50 [2] [µg/mL] | IC50 (LTD4 receptor) [µM] | inhibition at 100 µM (LTD4 receptor) [%] | inhibition at 20 µM (LTD4 receptor) [%] | Compound | Inh. of LTB4 biosynth., % [2] [%] | inhibition in vivo at 200 mg/kg (male mice; [4]) [%] | inhibition in vivo at 200 mg/kg (male mice; [5]) [%] | inhibition in vivo at 100 mg/kg (rats; [6]) [%] | inhibition in vivo at 100 mg/kg (rats; [7]) [%] | inhibition in vivo at 100 mg/kg (rats; [8]) [%] | Antiox. effect, % of peroxidation inhibition [3] [%] | inhibition in vivo at 100 mg/kg (Wistar-Han rats) [%] | also measured
6 | 13.5 |  |  | 0.1 |  | 99 | O=C(O)c1ccccc1Sc1cccc(OCc2ccc3cc(Cl)ccc3n2)c1 [Compound 23, Tromethammonium salt of 2-(3-(6-Chloroquinoline-2-ylmethoxy)phenyl-sulfanyl)benzoic Acid] | 96 |  |  |  |  |  | 9 |  | Inh. of LTB4 rec. binding, % (LTB4 receptor; at 20 μM): 33%; Inh. of LTB4 biosynth., IC50 [2]: 0.96 µg/mL; Ear edema, D: edema of ear lobe, % of inh. (male mice; [9]): 1 (s) %; Ear edema, E: hyperemia of ear lobe, % of inh. (male mice; [9]): 8%; Experimental pleuritis, A: volume of exudate in pleural cavity, % of inh. (rats; 100 mg/kg): 17%; Experimental pleuritis, B: number of cells, % of inh. (rats; 100 mg/kg): 31%; Experimental pleuritis, C: cellularity in a volume unit, % of inh. (rats; 100 mg/kg): 17%; CE: inhibition of carrageenan-induced edema, % of inh. (Wistar-Han rats): 50%
7 | 24 | 50 | 28 (≈ 69.7 µM) | 0.6 | 95 |  | O=C(O)Cc1ccccc1Sc1ccc(OCc2ccc3ccccc3n2)cc1 [Compound 29, 2-(4-(Quinoline-2-ylmethoxy)phenylsulfanyl)phenylacetic Acid] | 44 | 2 | 22 | 3 | 27 | 25 | 0 | 52 | 
8 | 58.9 | 40 | 0.46 (≈ 1.06 µM) | 1.15 |  | 83 | O=C(O)Cc1ccccc1Sc1cccc(OCc2ccc3cc(Cl)ccc3n2)c1 [Compound 31, 2-(3-(6-Chloroquinoline-2-ylmethoxy)phenylsulfanyl)phenylacetic Acid] | 100 | 16 | 11 | 24 | 75 | 39 | 4 | 13 | 
